assay: recombinant UMI read abundance after kanamycin selection (control-corrected) (log10(CPM+1)); higher = more efficient recombination; extreme values may be limits of the assay; sequences stand for … in AGTGCAGAGAAAATCGGCCAGTTTTCTCTGCCTGCAGTCCGCATGCCGTGGGACCCCTTGGGTTCTAACCTGTTGCCTAGATTTATGCAGCGGACTGCCTTTCTCCCAAAGTGATAAACCGG…AGGTTGGTTTCACT; site = the 11-nt donor
Summary of the method: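 Sequenced counts of recombinant UMIs were turned into CPM, averaged across replicates and scaled with control-derived factors. The reported figure is log10(CPM+1). Those UMIs, each 12 nt long, tagged donor and donor-binding-loop pairs on a plasmid with a promoterless kanamycin gene, screened as a pool in Escherichia coli with IPTG (0.07 mM) plus kanamycin or without selection.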
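Further: IS621 bridge recombinase in Escherichia coli cells against a fixed T5 target plasmid.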

Row | Sequence | recombinant UMI read abundance (log10)
1 | CAAGCGCCATGGACCGGTTTTCCCGGTAATCCGTATTTGTA (site CAAGCGCCTCA) | 0.173
2 | CAAGCGCCATGGACCGGTTTTCCCGGTAATCCGTATTTGTA (site CAAGCGCCTGA) | 1.01
3 | CAAGCGCCATGGACCGGTTTTCCCGGTAATCCGTATTTGTA (site CAAGCGCCTTA) | 1.49
4 | CAAGCGTCATGGACCGGTTTTCCCGGTAATCCGTATTTGTG (site CAAGCGACTCA) | 0.101
5 | CAAGCGTCATGGACCGGTTTTCCCGGTAATCCGTATTTGTG (site CAAGCGCCTCA) | 0.0275
6 | CAAGCGTCATGGACCGGTTTTCCCGGTAATCCGTATTTGTG (site CAAGCGGCTCA) | 0.00505
7 | CAAGCGTCATGGACCGGTTTTCCCGGTAATCCGTATTTGTG (site CAAGCGTCTCA) | 2.6
8 | CAAGGAACATGGACCGGTTTTCCCGGTAATCCGTATTTGCT (site CAAGGAACTAG) | 2.26
9 | CAAGGAGCATGGACCGGTTTTCCCGGTAATCCGTATTTGCT (site CAAGAAGCTAG) | 2.45
10 | CAAGGAGCATGGACCGGTTTTCCCGGTAATCCGTATTTGCT (site CAAGCAGCTAG) | 2.16
11 | CAAGGAGCATGGACCGGTTTTCCCGGTAATCCGTATTTGCT (site CAAGGAGCTAG) | 2.76
12 | CAAGGAGCATGGACCGGTTTTCCCGGTAATCCGTATTTGCT (site CAAGTAGCTAG) | 2.2
13 | CAAGGCCCATGGACCGGTTTTCCCGGTAATCCGTATTTGTC (site CAAGGCCCTGA) | 2.07
14 | CAAGGCTCATGGACCGGTTTTCCCGGTAATCCGTATTTGAA (site CAAAGCTCTTT) | 2.15
15 | CAAGGCTCATGGACCGGTTTTCCCGGTAATCCGTATTTGAA (site CAACGCTCTTT) | 0.00296
16 | CAAGGCTCATGGACCGGTTTTCCCGGTAATCCGTATTTGAA (site CAAGGCTCTTT) | 2.71
17 | CAAGGCTCATGGACCGGTTTTCCCGGTAATCCGTATTTGAA (site CAATGCTCTTT) | 0.368
18 | CAAGTATCATGGACCGGTTTTCCCGGTAATCCGTATTTGAC (site CAAGTATCTGT) | 2.94
19 | CAAGTATCATGGACCGGTTTTCCCGGTAATCCGTATTTGAC (site CCAGTATCTGT) | 0.955
20 | CAAGTATCATGGACCGGTTTTCCCGGTAATCCGTATTTGAC (site CGAGTATCTGT) | 2.2
21 | CAAGTATCATGGACCGGTTTTCCCGGTAATCCGTATTTGAC (site CTAGTATCTGT) | 2.04
22 | CAAGTCACATGGACCGGTTTTCCCGGTAATCCGTATTTGGT (site CAAGTCACTAC) | 1.84
23 | CAAGTCACATGGACCGGTTTTCCCGGTAATCCGTATTTGGT (site CAAGTCACTCC) | 0.00397
24 | CAAGTCACATGGACCGGTTTTCCCGGTAATCCGTATTTGGT (site CAAGTCACTGC) | 2.43
25 | CAAGTCACATGGACCGGTTTTCCCGGTAATCCGTATTTGGT (site CAAGTCACTTC) | 0.155

Row | Sequence | recombinant UMI read abundance (log10)
26 | CAAGTCACATGGACCGGTTTTCCCGGTAATCCGTATTTGTT (site CAAGTCACTAA) | 2.2
27 | CAATACACATGGACCGGTTTTCCCGGTAATCCGTATTTGCA (site CAATACACTTG) | 2.2
28 | CAATACCCATGGACCGGTTTTCCCGGTAATCCGTATTTGCT (site CAATACCCTAG) | 1.93
29 | CAATACCCATGGACCGGTTTTCCCGGTAATCCGTATTTGCT (site CAATCCCCTAG) | 1.55
30 | CAATACCCATGGACCGGTTTTCCCGGTAATCCGTATTTGCT (site CAATGCCCTAG) | 0.00435
31 | CAATACCCATGGACCGGTTTTCCCGGTAATCCGTATTTGCT (site CAATTCCCTAG) | 0
32 | CAATAGCCATGGACCGGTTTTCCCGGTAATCCGTATTTGCC (site CAATAGCCTGG) | 0.755
33 | CAATATCCATGGACCGGTTTTCCCGGTAATCCGTATTTGTT (site CAATATCCTAA) | 1.7
34 | CAATCAGCATGGACCGGTTTTCCCGGTAATCCGTATTTGCT (site CAAACAGCTAG) | 0
35 | CAATCAGCATGGACCGGTTTTCCCGGTAATCCGTATTTGCT (site CAACCAGCTAG) | 0.798
36 | CAATCAGCATGGACCGGTTTTCCCGGTAATCCGTATTTGCT (site CAAGCAGCTAG) | 0.0241
37 | CAATCAGCATGGACCGGTTTTCCCGGTAATCCGTATTTGCT (site CAATCAGCTAG) | 0.199
38 | CAATCCTCATGGACCGGTTTTCCCGGTAATCCGTATTTGAA (site CAATACTCTTT) | 1.33
39 | CAATCCTCATGGACCGGTTTTCCCGGTAATCCGTATTTGAA (site CAATCCTCTTT) | 1.98
40 | CAATCCTCATGGACCGGTTTTCCCGGTAATCCGTATTTGAA (site CAATGCTCTTT) | 0.00935
41 | CAATCCTCATGGACCGGTTTTCCCGGTAATCCGTATTTGAA (site CAATTCTCTTT) | 0
42 | CAATGAGCATGGACCGGTTTTCCCGGTAATCCGTATTTGGG (site AAATGAGCTCC) | 0.0303
43 | CAATGAGCATGGACCGGTTTTCCCGGTAATCCGTATTTGGG (site CAATGAGCTCC) | 0.779
44 | CAATGAGCATGGACCGGTTTTCCCGGTAATCCGTATTTGGG (site GAATGAGCTCC) | 0.00334
45 | CAATGAGCATGGACCGGTTTTCCCGGTAATCCGTATTTGGG (site TAATGAGCTCC) | 0.0682
46 | CAATGCCCATGGACCGGTTTTCCCGGTAATCCGTATTTGCT (site CAATACCCTAG) | 1.74
47 | CAATGCCCATGGACCGGTTTTCCCGGTAATCCGTATTTGCT (site CAATCCCCTAG) | 0.246
48 | CAATGCCCATGGACCGGTTTTCCCGGTAATCCGTATTTGCT (site CAATGCCCTAG) | 1.34
49 | CAATGCCCATGGACCGGTTTTCCCGGTAATCCGTATTTGCT (site CAATTCCCTAG) | 0
50 | CAATGCGCATGGACCGGTTTTCCCGGTAATCCGTATTTGAA (site CAATGCACTTT) | 1.15

Row | Sequence | recombinant UMI read abundance (log10)
51 | CAATGCGCATGGACCGGTTTTCCCGGTAATCCGTATTTGAA (site CAATGCCCTTT) | 0.0173
52 | CAATGCGCATGGACCGGTTTTCCCGGTAATCCGTATTTGAA (site CAATGCGCTTT) | 1.9
53 | CAATGCGCATGGACCGGTTTTCCCGGTAATCCGTATTTGAA (site CAATGCTCTTT) | 0.823
54 | CAATGCTCATGGACCGGTTTTCCCGGTAATCCGTATTTGAC (site CAATGCTCTAT) | 0.737
55 | CAATGCTCATGGACCGGTTTTCCCGGTAATCCGTATTTGAC (site CAATGCTCTCT) | 0.051
56 | CAATGCTCATGGACCGGTTTTCCCGGTAATCCGTATTTGAC (site CAATGCTCTGT) | 3.03
57 | CAATGCTCATGGACCGGTTTTCCCGGTAATCCGTATTTGAC (site CAATGCTCTTT) | 1.28
58 | CAATGCTCATGGACCGGTTTTCCCGGTAATCCGTATTTGAT (site CAATGCTCTAT) | 2.87
59 | CAATGCTCATGGACCGGTTTTCCCGGTAATCCGTATTTGAT (site CAATGCTCTCT) | 0.607
60 | CAATGCTCATGGACCGGTTTTCCCGGTAATCCGTATTTGAT (site CAATGCTCTGT) | 1.36
61 | CAATGCTCATGGACCGGTTTTCCCGGTAATCCGTATTTGAT (site CAATGCTCTTT) | 0.993
62 | CAATTAACATGGACCGGTTTTCCCGGTAATCCGTATTTGTT (site CAATTAACTAA) | 0.00834
63 | CAATTCCCATGGACCGGTTTTCCCGGTAATCCGTATTTGCT (site AAATTCCCTAG) | 0
64 | CAATTCCCATGGACCGGTTTTCCCGGTAATCCGTATTTGCT (site CAAATCCCTAG) | 0.763
65 | CAATTCCCATGGACCGGTTTTCCCGGTAATCCGTATTTGCT (site CAACTCCCTAG) | 1.16
66 | CAATTCCCATGGACCGGTTTTCCCGGTAATCCGTATTTGCT (site CAAGTCCCTAG) | 1.05
67 | CAATTCCCATGGACCGGTTTTCCCGGTAATCCGTATTTGCT (site CAATACCCTAG) | 0.712
68 | CAATTCCCATGGACCGGTTTTCCCGGTAATCCGTATTTGCT (site CAATCCCCTAG) | 0.539
69 | CAATTCCCATGGACCGGTTTTCCCGGTAATCCGTATTTGCT (site CAATGCCCTAG) | 0
70 | CAATTCCCATGGACCGGTTTTCCCGGTAATCCGTATTTGCT (site CAATTACCTAG) | 0
71 | CAATTCCCATGGACCGGTTTTCCCGGTAATCCGTATTTGCT (site CAATTCACTAG) | 0
72 | CAATTCCCATGGACCGGTTTTCCCGGTAATCCGTATTTGCT (site CAATTCCCTAA) | 0.188
73 | CAATTCCCATGGACCGGTTTTCCCGGTAATCCGTATTTGCT (site CAATTCCCTAC) | 0.184
74 | CAATTCCCATGGACCGGTTTTCCCGGTAATCCGTATTTGCT (site CAATTCCCTAG) | 0.879
75 | CAATTCCCATGGACCGGTTTTCCCGGTAATCCGTATTTGCT (site CAATTCCCTAT) | 1.61
